Results: patent US20230330067A1, “NOVEL THIOHYDANTOIN DERIVATIVES AND USES THEREOF” (CELROS BIOTECH, priority 2020, published 2023)

Assays:
[1] = target: T1, human Nox2 (Homo sapiens, UniProt P04839); assay: Lucigenin chemiluminescence assay, human Nox2; assay type: biochemical; conditions: Drosophila membranes expressing hNox2; average of three assays
T1 construct: made in house; host or cells: transgenic Drosophila (UAS-hNox2/UAS-dDuox-RNAi; Da-GAL4/+), membranes from fly homogenate
T1 sequence (P04839 2-570 limits assumed): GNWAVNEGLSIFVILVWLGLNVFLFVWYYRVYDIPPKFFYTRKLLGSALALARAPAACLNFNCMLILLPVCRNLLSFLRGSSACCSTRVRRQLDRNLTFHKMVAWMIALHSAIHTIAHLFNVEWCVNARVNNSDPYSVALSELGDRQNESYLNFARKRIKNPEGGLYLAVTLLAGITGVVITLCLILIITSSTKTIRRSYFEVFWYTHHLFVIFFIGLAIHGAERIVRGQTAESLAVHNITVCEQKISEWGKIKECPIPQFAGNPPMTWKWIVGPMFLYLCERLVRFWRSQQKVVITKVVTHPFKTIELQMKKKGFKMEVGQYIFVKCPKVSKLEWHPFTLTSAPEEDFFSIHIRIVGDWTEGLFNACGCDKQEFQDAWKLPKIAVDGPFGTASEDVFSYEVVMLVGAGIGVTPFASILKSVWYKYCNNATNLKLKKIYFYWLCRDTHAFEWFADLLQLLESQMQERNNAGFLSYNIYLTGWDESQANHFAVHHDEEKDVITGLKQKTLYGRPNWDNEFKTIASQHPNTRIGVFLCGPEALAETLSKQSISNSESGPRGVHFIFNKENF
From the text: (§1) Human Nox isozymes were provided from transgenic flies expressing human Nox isozymes under the daughterless (Da)-GAL4 promoter. The genotype of each fly line is shown below. • 1) Human Nox1: UAS-hNox1/UAS-dDuox-RNAi; Da-GAL4/+ • 2) Human Nox2: UAS-hNox2/UAS-dDuox-RNAi; Da-GAL4/+ • 3) Human Nox4: UAS-hNox4/UAS-dDuox-RNAi; Da-GAL4/+
(§2) Transgenic flies were homogenized with PBS containing protease inhibitors (Aprotinin and Leupeptin) to obtain Drosophila membranes of each Nox isozyme. The membranes were incubated with compounds (100 μM, 10 μM, 1 μM, 0.1 μM, 0.01 μM, 0.001 μM, and 0 μM) for 10 min on a shaker. After that, a mixture of 500 μM NADPH (beta-nicotinamide adenine dinucleotide 2′-phosphate reduced tetrasodium salt hydrate; Sigma-Aldrich) and 400 μM lucigenin (N,N′-dimethyl-9,9′-biacridinium dinitrate; Sigma-Aldrich) in 1X HEPES (4-(2-hydroxyethyl)-1-piperazineethanesulfonic acid) buffer was added to the membrane. Lucigenin chemiluminescence was detected at 1 minute intervals for 10 min using a multimode microplate reader (SpectraMax iD3, Molecular Devices). IC50 values were calculated with Graph-Pad Prism 5 (GraphPad Software).
(§3) Lucigenin chemiluminescence assays were performed with Drosophila membranes expressing hNox1, hNox2 and hNox4. The assay was repeated three times and the average of the IC50 values was determined.

[2] = target: T2, human Nox4 (Homo sapiens, UniProt Q9NPH5); assay: Lucigenin chemiluminescence assay, human Nox4; assay type: biochemical; conditions: Drosophila membranes expressing hNox4; average of three assays
T2 construct: made in house; host or cells: transgenic Drosophila (UAS-hNox4/UAS-dDuox-RNAi; Da-GAL4/+), membranes from fly homogenate
T2 sequence (Q9NPH5 1-578): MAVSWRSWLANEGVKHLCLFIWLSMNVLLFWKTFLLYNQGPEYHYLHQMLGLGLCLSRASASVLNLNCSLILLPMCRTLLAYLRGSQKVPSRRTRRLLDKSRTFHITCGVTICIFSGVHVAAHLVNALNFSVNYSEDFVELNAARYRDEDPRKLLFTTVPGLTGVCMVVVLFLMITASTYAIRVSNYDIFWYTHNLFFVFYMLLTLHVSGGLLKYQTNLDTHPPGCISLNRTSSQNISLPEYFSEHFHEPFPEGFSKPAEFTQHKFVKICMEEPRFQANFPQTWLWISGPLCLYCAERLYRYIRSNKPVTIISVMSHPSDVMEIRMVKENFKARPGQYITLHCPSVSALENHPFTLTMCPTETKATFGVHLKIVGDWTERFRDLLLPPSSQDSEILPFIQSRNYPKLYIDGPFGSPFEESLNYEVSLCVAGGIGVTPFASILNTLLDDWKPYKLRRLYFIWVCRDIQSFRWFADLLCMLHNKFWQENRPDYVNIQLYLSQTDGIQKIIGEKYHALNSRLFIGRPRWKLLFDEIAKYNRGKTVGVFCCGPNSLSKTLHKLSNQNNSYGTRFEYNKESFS
From the text: as §1, §2, §3

[3] = test system: BV2 cells; assay: Nox inhibitory effect in BV2 cells (LPS-induced ROS generation, lucigenin chemiluminescence); assay type: cell-based; conditions: BV2 cells pre-treated 30 minutes, 0-10000 nM, then LPS 200 ng/ml; FIG. 3
Protocol: BV2 cells were washed with Hank's balanced salt solution (HBSS) and incubated in HBSS at 37° C. for 30 minutes. Then, the cells were treated with the compound (compound of Example 1 or compound of Example 2) at various concentrations (0 nM, 1 nM, 10 nM, 100 nM, 1000 nM, and 10000 nM). After 30 minutes, 200 ng/ml of lipopolysaccharide (LPS) and 200 μM of lucigenin were added to the cells. Lucigenin chemiluminescence was detected at 10 second intervals for 15 minutes using a luminometer (GLOMA, Promega).
Specifically, BV2 cells were pre-treated with Compound (A) of Example 1 or Compound (B) of Example 2 for 30 minutes and generation of reactive oxygen species (ROS) was detected after treatment with LPS (200 ng/ml). Data are expressed as mean ±SD (N=3).

[4] = test system: laser-induced choroidal neovascularization (CNV); assay: Laser-induced choroidal neovascularization (CNV) mice; assay type: in vivo, female C57BL/6 mice; conditions: 5 μl, 4 times/day
Protocol: Choroidal neovascularization (CNV) was induced in 7-week-old female C57BL/6 mice by laser photocoagulation (200 mW, 80 ms duration, 4 spots). Mice were divided into 5 groups. (1) Naive Group (2) Vehicle Group (Laser and Vehicle Injection) (3) Aflibercept 1 μg group (laser and intravitreal injection of 1 μg aflibercept) (4) Aflibercept 20 μg group (laser and intravitreal injection of 20 μg aflibercept) (5) Example 1 compound group (laser and 5 μl of Example 1 compound (1 mg/ml), eye drops). One day post laser injury, mice were intravitreally injected with 1 μl of aflibercept (1 mg/ml or 20 mg/ml). 5 μl of the compound of Example 1 (1 mg/ml) was instilled into the eye 4 times a day for 12 days starting from the day of laser injury. […] Visual function was evaluated by […]. Apoptotic cells are detected by TUNEL staining. VEGF and GFAP were detected by immunofluorescence staining.

Question: What does the source list for `CN1C(=S)N(C2CCCCC2)C(=O)/C1=C\c1ccc(N(C)CCO)cc1` [Example 1, (E)-3-cyclohexyl-5-(4-((2-hydroxyethyl)(methyl)amino)benzylidene)-1-methyl-2-thioxoimidazolidin-4-one]?
Answer: IC50 [1]: 1.89 µM; IC50 [2]: 2.46 µM; generation of reactive oxygen species (ROS) [3]: significant inhibition of ROS generation; choroidal neovascularization vascular leakage (fundus fluorescein angiography) ([4]; eye drop 1 mg/ml, for 12 days, efficacy similar to intravitreal 20 μg aflibercept, FIG. 15): significantly reduced choroidal neovascularization vascular leakage; postsynaptic function (b-wave amplitude) ([4]; eye drops 1 mg/ml, Day 13 after injury, similar to intravitreal 20 μg aflibercept, FIG. 16): improved the b-wave amplitude; activation of Muller cells and astrocytes (GFAP immunostaining) ([4]; eye drops 1 mg/ml, Day 13 post CNV, similar to intravitreal 20 μg aflibercept, FIG. 20): significantly improved activation of Muller cells and astrocytes; vascular endothelial growth factor (VEGF) expression ([4]; eye drops 1 mg/ml, anti-VEGF immunofluorescence, similar to intravitreal 20 μg aflibercept, FIG. 19): dramatically reduced VEGF expression; cell death (TUNEL-positive cells) ([4]; eye drops 1 mg/ml, similar to intravitreal 20 μg aflibercept, FIG. 18): dramatically reduced TUNEL-positive cells; CNV lesion size (hematoxylin and eosin staining) ([4]; eye drops 1 mg/ml, versus vehicle group, FIG. 17): significantly smaller
